Experimental data taken from patent US10357485B1, “Anti-cancer compound” (KING SAUD UNIVERSITY, priority 2018, dated 2019).
Read-outs that look alike come from different tables or passages of the source.

Tests used:
Assay type in all cases: cell-based, human
JURKAT cells [1] = test: FITC Annexin V/PI apoptosis assay by flow cytometry; details: 48 h of treatment, compound 4 at 10.33 μM
Procedure: To determine whether the antiproliferative effect of compound 4 can trigger cell apoptosis, the percentage of JURKAT cells undergoing apoptosis was determined by flow cytometric analysis after the cells were stained with FITC Annexin V and proidium iodide (PI). […] As depicted in FIGS. 6A-6G, after 48 h of treatment with compound 4, a significant accumulation of AnnexinV^+ was observed, relative to CTP treated cells. 45.21% and 12.54% of cells were determined to be in early apoptosis (AnnexinV^+) when treated with compound 4 and CTP, respectively. Similarly, 46.32% and 14.33% of cells were determined to be in late apoptosis (AnnexinV^+, PI^+) when treated with compound 4 and CTP, respectively. Apoptosis assay was performed using FITC Annexin V Apoptosis Detection Kit I (BD Biosciences, San Jose, Calif., USA). The fluorescence intensities of FITC-conjugated Annexin V and PI in compound 4 treated, control treated and untreated cells were analyzed using flow cytometry. Briefly, JURKAT cells (1×10^6 cells/well) were seeded in a 6-well plate. […] Following trypsinization, cells were centrifuged at 1000×g for 10 min, and the pellet was gently resuspended in 100 μL FITC Annexin V binding buffer and then incubated with 5 μL of FITC Annexin V in the dark for 10 min at 25° C. The cells were then centrifuged at 2000 rpm for 5 min, gently resuspended in 500 μL of FITC Annexin V binding buffer and 5 μL of PI was added in an ice bath, followed by flow cytometry (BD FACS Calibur, San Jose, Calif., USA) the apoptotic cells were analyzed using Cell Quest software.

JURKAT cells [2] = test: MTT cytotoxicity assay on JURKAT cells; details: for IC50: Homo sapiens, JURKAT cells
Procedure: As described in detail herein, a cytotoxicity assay of compound 4 was performed on four human cancer cell lines—JURKAT, NCI-H460, HCT116 and MCF7—with camptothecin (CPT) as a positive control. The inhibitory effects of compound 4 on JURKAT, NCI-H460, HCT116 and MCF7 cancer cells were determined by an MTT (3-[4,5-dimethylthiazol-2-yl]-2,5 diphenyltetrazolium bromide) assay. The cancer cells were exposed to compound 4 at various concentrations of 1, 5, 10, 15, and 20 μM for different incubation periods of 24 h and 48 h. […] The stock solutions of 1 mM compound 4 and camptothecin (40 μM) were prepared, respectively, in DMSO. Further dilutions of 1, 5, 10, 15, and 20 μM were made in Dulbecco's Modified Eagle's Medium (DMEM) for treatment of cancer cells. MCF-7 (human breast cancer); HCT116 (human colon cancer); NCI-H460 (human non-small lung cancer); and JURKAT (human T-cell lymphoma) cell lines were obtained from the National Centre for Cell Science (NCCS, Pune, India). All cells were cultured in DMEM—except JURKAT cells, which were cultured in RPMI media—and supplemented with 10% fetal bovine serum (HiMedia, India) with penicillin (100 I.U/mL) and streptomycin (100 μg/mL) at 37° C. in a humidified atmosphere of 5% CO2 in air. Cultured cells of 75-85% confluency were used for the assays. Adherent cells were trypsinized, counted and seeded in 96-well plates for viability studies. Cells were allowed to adhere overnight before treatment in the experiments. JURKAT cells were washed with D-PBS, counted and seeded in 96-well plates for viability studies. Cytotoxicity of compound 4 for JURKAT cells was determined by 3-(4,5-dimethylthiazol-2-yl)-2,5-diphenyltetrazolium bromide (MTT) assay. In brief, cells were seeded with different concentrations of compound 4—specifically 1, 5, 10, 15, and 20 μM—in 96 wells plate at a density of 20000 cells per well and incubated for 24 h and 48 h at 37° C., in a CO2 incubator. The MTT assay was performed according to manufacturer instructions and absorbance of the treated and untreated cells were measured in a microplate reader at 570 nm wavelength. Results were represented as percentage of viability={[A570 (treated cells)−background]/[A570 (untreated cells)−background]}×100. Each treatment was performed in triplicate (N=3).

[3] = system: Caspase-3 in JURKAT cells; test: Caspase-3 expression assay, FITC staining, flow cytometry; details: 48 h, 10.33 μM, CPT 40 μM
Procedure: Caspase-3 expression was measured using FITC staining. […] Apoptotic caspases are believed to be activated in a protease cascade in which the activated apical caspases responding to apoptotic stimuli directly activate the executioner (effector) caspases in a precisely controlled process. Among these effector caspases, caspase-3, a member of the cysteine protease family, plays a central role in the execution phase of both intrinsic (mitochondrial) and extrinsic (death receptor) pathways of apoptosis by cleaving many key cellular proteins, such as poly (ADP ribose) polymerase (PARP), inhibitor of caspase-activated DNase (ICAD), and several others. Briefly, JURKAT cells (1×10^6 cells/well) were seeded in a 6-well plate. […] The JURKAT cells were harvested and then fixed with 70% ice-cold ethanol followed by incubation at −20° C. for 30 min. The fixed JURKAT cells were washed twice with PBS and treated with 20 μl of Caspase-3-FITC (BD Biosciences) and incubated for 60 min at room temperature in dark conditions. Cells were washed with PBS and resuspended in 0.5 ml of PBS, before analysis for Caspase-3 expression using BD FACS Callibur (San Jose, Calif., USA).

JURKAT cells [4] = test: Cell cycle analysis, propidium iodide staining, flow cytometry; details: 48 h, 10.33 μM
Procedure: Therefore, interruption of cell cycle progression is an important target for cancer treatment. JURKAT cells were treated with compound 4 for 48 h and stained with propidium iodide to determine the proportion of cells undergoing apoptosis or cell death as analyzed by flow cytometry. […] The percentage of compound 4-treated cells decreased in G0/G1 and G2/M phase. […] Checkpoints are the pathways that halt progression of the cell cycle in response to cellular stress. Targeting checkpoint pathways are potential anti-cancer strategies because abrogation of checkpoint function drives tumor cells toward apoptosis and enhances the efficacy of oncotherapy. The cell cycle phase evaluation was performed as described by […] et al. (2007). Jurkat cells were plated at 1×10^6 cells/well in a six-well plate for 12 h and then cells were exposed with compound-4 in serum-free media and incubated for an additional 48 h. […] Following trypsinization, cells were centrifuged at 1000×g for 10 min, and the pellet was resuspended in PBS. Fixation was completed by adding 70% cold ethanol for at least 2 h. The fixed cells were centrifuged at 1000 g for 10 min, and the pellet suspended in PBS. After 60 s, the cells were centrifuged as before, and the pellet resuspended in 1 ml of propidium iodide (PI) staining solution. Immediately after 15 min incubation at 37° C., the cells were analyzed to determine the cell cycle stage using flow cytometry (BD FACS Calibur, San Jose, Calif., USA) with an excitation wavelength of 488 nm and an emission at 670 nm using the Cell Quest software for analysis. The data presented represent at least three independent experiments conducted in triplicate (N=3).

MCF7 cells = test: MTT cytotoxicity assay on MCF7 cells; details: MCF7, 1-20 μM, 24 and 48 hours
Procedure: (§1) As described in detail herein, a cytotoxicity assay of compound 4 was performed on four human cancer cell lines—JURKAT, NCI-H460, HCT116 and MCF7—with camptothecin (CPT) as a positive control. The inhibitory effects of compound 4 on JURKAT, NCI-H460, HCT116 and MCF7 cancer cells were determined by an MTT (3-[4,5-dimethylthiazol-2-yl]-2,5 diphenyltetrazolium bromide) assay. The cancer cells were exposed to compound 4 at various concentrations of 1, 5, 10, 15, and 20 μM for different incubation periods of 24 h and 48 h. […] The stock solutions of 1 mM compound 4 and camptothecin (40 μM) were prepared, respectively, in DMSO. Further dilutions of 1, 5, 10, 15, and 20 μM were made in Dulbecco's Modified Eagle's Medium (DMEM) for treatment of cancer cells. […] Adherent cells were trypsinized, counted and seeded in 96-well plates for viability studies. […] JURKAT cells were washed with D-PBS, counted and seeded in 96-well plates for viability studies. Cytotoxicity of compound 4 for JURKAT cells was determined by 3-(4,5-dimethylthiazol-2-yl)-2,5-diphenyltetrazolium bromide (MTT) assay. […] The MTT assay was performed according to manufacturer instructions and absorbance of the treated and untreated cells were measured in a microplate reader at 570 nm wavelength. […]

HCT116 cells = test: MTT cytotoxicity assay on HCT116 cells; details: HCT116, 1-20 μM, 24 and 48 hours
Procedure: as §1

JURKAT cells [5] = test: DNA fragmentation by TUNEL assay; details: 48 h, 10.33 μM
From the text: DNA fragmentation is a key feature of apoptosis, and is largely due to activation of endogenous endonucleases that induce cleavage of chromatin DNA into internucleosomal fragments of roughly 180 base pairs. Apoptosis can be qualitatively assessed by monitoring DNA fragmentation trends, for instance, using terminal deoxynucleotidyl transferase dUTP nick end labeling (TUNEL) assay. For untreated […] cells, TUNEL assay results indicated a constant base line of TUNEL-positive cells. […] DNA fragmentation was monitored in treated, control treated and untreated JURKAT cells to identify stages of apoptosis. […] Supernatant and adherent cells were collected in a centrifuge tube and then washed twice with PBS. The cells were fixed with 70% ice-cold ethanol by incubating at -20° C. for 30 min. The fixed cells were resuspended in wash buffer, and then washed twice by centrifugation. 50 μl of DNA labeling solution was added to each cell pellet. The cell pellets were incubated with the DNA labeling solution at 37° C. for 60 min. The cell pellets were rinsed with rinse buffer and then resuspended with 0.5 ml of PI/RNase Staining Buffer and incubated for 30 min at RT. Flow cytometry was performed to detect DNA fragmentation (BD FACS Calibur, San Jose, Calif., USA).

JURKAT cells [6] = test: Mitochondrial membrane potential (ΔΨm) assay, JC-1 staining; details: 48 h, 10.33 μM
Procedure: Mitochondrial membrane depolarization is an early event in apoptosis. Chemotherapeutic agents usually induce apoptosis via the mitochondrial pathway. Evaluation of the effect of compound 4 treatment on mitochondrial membrane depolarization was determined using flow cytometry after staining with mitochondrial potential-sensitive dye JC-1. […] Mitochondrial membrane potential (ΔΨm) was determined using JC-1, a fluorescent carbocyanine dye (Smiley et al., 1991). Briefly, JURKAT cells (1×10^6 cells/well) were seeded in a 6-well plate. […] Each of the cell pellets were incubated with 2.5 μM JC-1 for 15 min at 37° C. in darkness. Subsequently, stained cells were washed with PBS, followed by FACS analysis (BD FACS Calibur, San Jose, Calif., USA).

NCI-H460 cells = test: MTT cytotoxicity assay on NCI-H460 cells; details: NCI-H460, 1-20 μM, 24 and 48 hours
Procedure: as §1

In the case of `CC[C@@]1(O)C(=O)OCc2c1cc1n(c2=O)Cc2cc3ccccc3nc2-1` [CPT, camptothecin, reference compound], the “cells in early apoptosis (AnnexinV+)” value (JURKAT cells [1]) is reported as 12.54%, the “cells in late apoptosis (AnnexinV+, PI+)” value (JURKAT cells [1]) is reported as 14.33% and the IC50 (JURKAT cells [2]; given as treatment concentration, time not stated, read-out: IC50 of CPT as stated in the methods) is reported as 40 µM.
With `O=C1/C(=C/c2ccc(Br)cc2)CN2CC13C(c1ccc(Br)cc1)C1Cc4ccccc4CN1C31c3cccc4cccc(c34)[C@@]21O` (some centres unmarked) [compound 4] the “caspase-3 expression compared with CPT control treated cells” value [3] was “higher caspase-3 expression”, the “percentage of cells in G0/G1 phase” value (JURKAT cells [4]) was “decreased” and the “percentage of cells in G2/M phase” value (JURKAT cells [4]) was “decreased”. For the same molecule, the “percentage of cells in S phase compared to untreated cells” value (JURKAT cells [4]) was “significantly increased”, the “percentage of cells in sub G0/G1 phase compared to untreated cells” value (JURKAT cells [4]) was “moderately increased” and the “Proliferation of the cancer cells” value (MCF7 cells) was “significantly inhibited in a concentration-dependent manner”. For the same molecule, the “cells in early apoptosis (AnnexinV+)” value (JURKAT cells [1]) was 45.21%, the “cells in late apoptosis (AnnexinV+, PI+)” value (JURKAT cells [1]) was 46.32% and the IC50 (JURKAT cells [2]; MTT, 24 h, read-out: IC50 (half maximal inhibitory concentration)) was 15.6 µM. For the same molecule, the IC50 (JURKAT cells [2]; MTT, 48 h, read-out: IC50 (half maximal inhibitory concentration)) was 10.3 µM, the “Proliferation of the cancer cells” value (JURKAT cells [2]; JURKAT, 1-20 μM, 24 and 48 hours) was “significantly inhibited in a concentration-dependent manner” and the “Inhibition compared to positive control CPT (40 μM)” value (JURKAT cells [2]; compound 4 at 15 μM and 20 μM) was “higher inhibition”. The “Proliferation of the cancer cells” value (HCT116 cells) was “significantly inhibited in a concentration-dependent manner”, the “number of TUNEL-positive cells compared with untreated or control cells” value (JURKAT cells [5]) was “significant increase” and the “DNA fragmentation relative to CTP (control) treated cells” value (JURKAT cells [5]; CPT 40 μM) was “increased DNA fragmentation”. For the same molecule, the “mitochondrial membrane potential (ΔΨm) compared to control (untreated) cells” value (JURKAT cells [6]) was “Significant decrease” and the “Proliferation of the cancer cells” value (NCI-H460 cells) was “significantly inhibited in a concentration-dependent manner”.
